Data from ChEMBL document CHEMBL4507284, “Data for DCP probe BI-1230” (2021).
Activity calls are given as the source filed them. No cut-off for these calls is given here.

How the values were obtained:
[1] = target: 1-phosphatidylinositol 3-phosphate 5-kinase (Homo sapiens) (UniProt Q9Y2I7); conditions: Compound concentration 1000.0 nM
[2] = target: Mitogen-activated protein kinase kinase kinase 6 (Homo sapiens) (UniProt O95382); conditions: Compound concentration 1000.0 nM
[3] = target: Serine/threonine-protein kinase Sgk3 (Homo sapiens) (UniProt Q96BR1); conditions: Compound concentration 1000.0 nM
[4] = target: Cyclin-dependent kinase-like 1 (Homo sapiens) (UniProt Q00532); conditions: Compound concentration 1000.0 nM
[5] = target: Serine/threonine-protein kinase ICK (Homo sapiens) (UniProt Q9UPZ9); conditions: Compound concentration 1000.0 nM
[6] = target: Serine/threonine-protein kinase PAK 3 (Homo sapiens) (UniProt O75914); conditions: Compound concentration 1000.0 nM
[7] = tested on: Receptor-type tyrosine-protein kinase FLT3 (Homo sapiens), P36888 [UNDEFINED MUTATION]; conditions: Compound concentration 1000.0 nM
[8] = target: Mitogen-activated protein kinase kinase kinase 4 (Homo sapiens) (UniProt Q9Y6R4); conditions: Compound concentration 1000.0 nM
[9] = target: Serine/threonine-protein kinase BRSK1 (Homo sapiens) (UniProt Q8TDC3); conditions: Compound concentration 1000.0 nM
[10] = target: Fibroblast growth factor receptor 1 (Homo sapiens) (UniProt P11362); conditions: Compound concentration 1000.0 nM
[11] = tested on: Phosphatidylinositol 4,5-bisphosphate 3-kinase catalytic subunit alpha isoform (Homo sapiens), P42336 [Q546K]; conditions: Compound concentration 1000.0 nM
[12] = target: Cyclin-dependent kinase 3 (Homo sapiens) (UniProt Q00526); conditions: Compound concentration 1000.0 nM
[13] = target: Mitogen-activated protein kinase 3 (Homo sapiens) (UniProt P27361); conditions: Compound concentration 1000.0 nM
[14] = target: Serine/threonine-protein kinase PLK3 (Homo sapiens) (UniProt Q9H4B4); conditions: Compound concentration 1000.0 nM
[15] = target: Ephrin type-A receptor 8 (Homo sapiens) (UniProt P29322); conditions: Compound concentration 1000.0 nM
[16] = tested on: Phosphatidylinositol 4,5-bisphosphate 3-kinase catalytic subunit alpha isoform (Homo sapiens), P42336 [I800L]; conditions: Compound concentration 1000.0 nM
[17] = target: Serine/threonine-protein kinase PAK 4 (Homo sapiens) (UniProt O96013); conditions: Compound concentration 1000.0 nM
[18] = target: Fibroblast growth factor receptor 4 (Homo sapiens) (UniProt P22455); conditions: Compound concentration 1000.0 nM
[19] = target: Serine/threonine-protein kinase PLK1 (Homo sapiens) (UniProt P53350); conditions: Compound concentration 1000.0 nM
[20] = target: Vascular endothelial growth factor receptor 2 (Homo sapiens) (UniProt P35968); conditions: Compound concentration 1000.0 nM
[21] = target: Mitogen-activated protein kinase kinase kinase 2 (Homo sapiens) (UniProt Q9Y2U5); conditions: Compound concentration 1000.0 nM
[22] = target: Receptor-type tyrosine-protein kinase FLT3 (Homo sapiens) (UniProt P36888); conditions: Compound concentration 1000.0 nM
[23] = target: Serine/threonine-protein kinase WNK4 (Homo sapiens) (UniProt Q96J92); conditions: Compound concentration 1000.0 nM
[24] = target: Cyclin-dependent kinase 2 homolog (Plasmodium falciparum (isolate 3D7)) (UniProt P61075); conditions: Compound concentration 1000.0 nM
[25] = tested on: Proto-oncogene tyrosine-protein kinase receptor Ret (Homo sapiens), P07949 [M918T]; conditions: Compound concentration 1000.0 nM
[26] = target: Homeodomain-interacting protein kinase 2 (Homo sapiens) (UniProt Q9H2X6); conditions: Compound concentration 1000.0 nM
[27] = target: Serine/threonine-protein kinase 32A (Homo sapiens) (UniProt Q8WU08); conditions: Compound concentration 1000.0 nM
[28] = target: LIM domain kinase 2 (Homo sapiens) (UniProt P53671); conditions: Compound concentration 1000.0 nM
[29] = target: Receptor-type tyrosine-protein kinase FLT3 (Homo sapiens) (UniProt P36888); conditions: Compound concentration 1000.0 nM; remark: listed apart in the source
[30] = target: Calcium/calmodulin-dependent protein kinase kinase 1 (Homo sapiens) (UniProt Q8N5S9); conditions: Compound concentration 1000.0 nM
[31] = target: Tyrosine-protein kinase SYK (Homo sapiens) (UniProt P43405); conditions: Compound concentration 1000.0 nM
[32] = tested on: Proto-oncogene tyrosine-protein kinase receptor Ret (Homo sapiens), P07949 [V804M]; conditions: Compound concentration 1000.0 nM
[33] = target: Mitogen-activated protein kinase 8 (Homo sapiens) (UniProt P45983); conditions: Compound concentration 1000.0 nM
[34] = target: Tyrosine-protein kinase ZAP-70 (Homo sapiens) (UniProt P43403); conditions: Compound concentration 1000.0 nM
[35] = target: Tyrosine-protein kinase Yes (Homo sapiens) (UniProt P07947); conditions: Compound concentration 1000.0 nM
NS3 protease = NS3 protease (Hepacivirus C, UniProt C1KIQ2); test: Enzymatic assay; design: species or system Hepacivirus hominis
[36] = target: Cyclin-dependent kinase 13 (Homo sapiens) (UniProt Q14004); conditions: Compound concentration 1000.0 nM
[37] = target: Serine/threonine-protein kinase MARK2 (Homo sapiens) (UniProt Q7KZI7); conditions: Compound concentration 1000.0 nM
[38] = target: Aurora kinase B (Homo sapiens) (UniProt Q96GD4); conditions: Compound concentration 1000.0 nM
[39] = target: Serine/threonine-protein kinase 16 (Homo sapiens) (UniProt O75716); conditions: Compound concentration 1000.0 nM
[40] = target: Peripheral plasma membrane protein CASK (Homo sapiens) (UniProt O14936); conditions: Compound concentration 1000.0 nM
[41] = target: Mitogen-activated protein kinase kinase kinase kinase 4 (Homo sapiens) (UniProt O95819); conditions: Compound concentration 1000.0 nM
[42] = target: Casein kinase I isoform alpha (Homo sapiens) (UniProt P48729); conditions: Compound concentration 1000.0 nM
[43] = tested on: Receptor-type tyrosine-protein kinase FLT3 (Homo sapiens), P36888 [N841I]; conditions: Compound concentration 1000.0 nM
[44] = target: Cyclin-dependent kinase 18 (Homo sapiens) (UniProt Q07002); conditions: Compound concentration 1000.0 nM

Serine/threonine-protein kinase PAK 4 (Homo sapiens), sequence (O96013 whole entry, looked up): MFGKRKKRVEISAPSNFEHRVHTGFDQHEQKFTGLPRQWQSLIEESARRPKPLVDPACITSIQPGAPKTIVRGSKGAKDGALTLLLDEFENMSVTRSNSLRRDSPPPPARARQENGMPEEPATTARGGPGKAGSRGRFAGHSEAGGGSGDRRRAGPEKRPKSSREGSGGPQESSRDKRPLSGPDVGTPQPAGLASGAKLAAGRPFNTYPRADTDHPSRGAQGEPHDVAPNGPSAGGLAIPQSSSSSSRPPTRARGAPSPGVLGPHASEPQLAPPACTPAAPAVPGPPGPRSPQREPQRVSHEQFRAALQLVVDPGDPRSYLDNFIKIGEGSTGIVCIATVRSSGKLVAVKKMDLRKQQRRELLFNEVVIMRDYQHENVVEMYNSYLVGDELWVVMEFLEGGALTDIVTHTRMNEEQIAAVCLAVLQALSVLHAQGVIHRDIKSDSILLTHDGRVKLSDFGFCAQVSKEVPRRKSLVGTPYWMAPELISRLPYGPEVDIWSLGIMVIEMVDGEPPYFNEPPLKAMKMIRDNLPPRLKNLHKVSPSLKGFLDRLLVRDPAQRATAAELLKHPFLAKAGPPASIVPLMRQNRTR
NS3 protease, sequence (C1KIQ2 whole entry): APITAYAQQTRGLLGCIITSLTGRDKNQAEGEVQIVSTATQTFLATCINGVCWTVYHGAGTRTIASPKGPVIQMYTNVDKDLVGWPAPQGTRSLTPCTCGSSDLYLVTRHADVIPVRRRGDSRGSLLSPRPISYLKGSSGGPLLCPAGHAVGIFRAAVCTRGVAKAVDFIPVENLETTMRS
Mitogen-activated protein kinase kinase kinase 6 (Homo sapiens), sequence (O95382 whole entry): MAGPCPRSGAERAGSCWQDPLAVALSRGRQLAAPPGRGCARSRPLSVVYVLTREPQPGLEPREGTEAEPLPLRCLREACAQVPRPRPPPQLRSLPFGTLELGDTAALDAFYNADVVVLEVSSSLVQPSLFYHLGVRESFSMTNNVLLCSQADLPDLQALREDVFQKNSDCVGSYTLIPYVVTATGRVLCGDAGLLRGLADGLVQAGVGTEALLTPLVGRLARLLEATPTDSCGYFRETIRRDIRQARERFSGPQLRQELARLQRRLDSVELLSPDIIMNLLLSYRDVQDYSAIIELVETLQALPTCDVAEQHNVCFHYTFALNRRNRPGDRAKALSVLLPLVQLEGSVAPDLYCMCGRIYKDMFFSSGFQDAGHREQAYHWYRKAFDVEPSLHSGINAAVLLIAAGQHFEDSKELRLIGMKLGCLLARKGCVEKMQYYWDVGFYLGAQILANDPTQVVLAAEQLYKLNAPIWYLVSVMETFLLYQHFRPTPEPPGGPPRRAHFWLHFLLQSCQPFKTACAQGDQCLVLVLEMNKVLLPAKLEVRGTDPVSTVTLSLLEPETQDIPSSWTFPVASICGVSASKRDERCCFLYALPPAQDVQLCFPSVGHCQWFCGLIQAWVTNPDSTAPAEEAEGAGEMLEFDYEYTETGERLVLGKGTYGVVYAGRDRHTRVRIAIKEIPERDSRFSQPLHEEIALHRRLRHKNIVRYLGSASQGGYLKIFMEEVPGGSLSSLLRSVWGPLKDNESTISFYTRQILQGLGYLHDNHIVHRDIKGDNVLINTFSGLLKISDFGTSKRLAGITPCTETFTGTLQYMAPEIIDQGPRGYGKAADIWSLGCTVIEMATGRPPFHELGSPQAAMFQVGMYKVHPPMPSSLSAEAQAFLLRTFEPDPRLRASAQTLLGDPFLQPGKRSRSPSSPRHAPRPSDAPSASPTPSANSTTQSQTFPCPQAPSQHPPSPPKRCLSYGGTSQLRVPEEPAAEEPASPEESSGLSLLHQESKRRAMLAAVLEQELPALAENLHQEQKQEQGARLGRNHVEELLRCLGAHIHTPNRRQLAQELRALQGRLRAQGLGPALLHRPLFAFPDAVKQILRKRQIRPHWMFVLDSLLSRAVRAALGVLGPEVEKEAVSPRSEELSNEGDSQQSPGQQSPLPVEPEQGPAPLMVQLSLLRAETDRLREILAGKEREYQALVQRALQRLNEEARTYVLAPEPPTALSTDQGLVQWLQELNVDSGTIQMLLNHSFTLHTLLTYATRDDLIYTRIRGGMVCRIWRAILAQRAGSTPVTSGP
Mitogen-activated protein kinase 8 (Homo sapiens), sequence (P45983 whole entry): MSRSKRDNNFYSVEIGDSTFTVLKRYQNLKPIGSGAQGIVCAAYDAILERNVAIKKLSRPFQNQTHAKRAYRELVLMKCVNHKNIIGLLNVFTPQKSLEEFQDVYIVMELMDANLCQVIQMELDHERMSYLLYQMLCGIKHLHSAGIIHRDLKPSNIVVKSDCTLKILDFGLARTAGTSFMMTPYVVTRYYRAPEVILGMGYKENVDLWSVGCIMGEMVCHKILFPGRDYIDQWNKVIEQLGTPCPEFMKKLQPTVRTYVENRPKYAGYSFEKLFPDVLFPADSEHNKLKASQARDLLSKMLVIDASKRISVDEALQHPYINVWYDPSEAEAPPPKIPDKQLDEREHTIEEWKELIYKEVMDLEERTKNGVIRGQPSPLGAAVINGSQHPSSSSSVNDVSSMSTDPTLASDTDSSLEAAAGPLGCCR
Mitogen-activated protein kinase kinase kinase kinase 4 (Homo sapiens), sequence (O95819 2-1239 limits assumed): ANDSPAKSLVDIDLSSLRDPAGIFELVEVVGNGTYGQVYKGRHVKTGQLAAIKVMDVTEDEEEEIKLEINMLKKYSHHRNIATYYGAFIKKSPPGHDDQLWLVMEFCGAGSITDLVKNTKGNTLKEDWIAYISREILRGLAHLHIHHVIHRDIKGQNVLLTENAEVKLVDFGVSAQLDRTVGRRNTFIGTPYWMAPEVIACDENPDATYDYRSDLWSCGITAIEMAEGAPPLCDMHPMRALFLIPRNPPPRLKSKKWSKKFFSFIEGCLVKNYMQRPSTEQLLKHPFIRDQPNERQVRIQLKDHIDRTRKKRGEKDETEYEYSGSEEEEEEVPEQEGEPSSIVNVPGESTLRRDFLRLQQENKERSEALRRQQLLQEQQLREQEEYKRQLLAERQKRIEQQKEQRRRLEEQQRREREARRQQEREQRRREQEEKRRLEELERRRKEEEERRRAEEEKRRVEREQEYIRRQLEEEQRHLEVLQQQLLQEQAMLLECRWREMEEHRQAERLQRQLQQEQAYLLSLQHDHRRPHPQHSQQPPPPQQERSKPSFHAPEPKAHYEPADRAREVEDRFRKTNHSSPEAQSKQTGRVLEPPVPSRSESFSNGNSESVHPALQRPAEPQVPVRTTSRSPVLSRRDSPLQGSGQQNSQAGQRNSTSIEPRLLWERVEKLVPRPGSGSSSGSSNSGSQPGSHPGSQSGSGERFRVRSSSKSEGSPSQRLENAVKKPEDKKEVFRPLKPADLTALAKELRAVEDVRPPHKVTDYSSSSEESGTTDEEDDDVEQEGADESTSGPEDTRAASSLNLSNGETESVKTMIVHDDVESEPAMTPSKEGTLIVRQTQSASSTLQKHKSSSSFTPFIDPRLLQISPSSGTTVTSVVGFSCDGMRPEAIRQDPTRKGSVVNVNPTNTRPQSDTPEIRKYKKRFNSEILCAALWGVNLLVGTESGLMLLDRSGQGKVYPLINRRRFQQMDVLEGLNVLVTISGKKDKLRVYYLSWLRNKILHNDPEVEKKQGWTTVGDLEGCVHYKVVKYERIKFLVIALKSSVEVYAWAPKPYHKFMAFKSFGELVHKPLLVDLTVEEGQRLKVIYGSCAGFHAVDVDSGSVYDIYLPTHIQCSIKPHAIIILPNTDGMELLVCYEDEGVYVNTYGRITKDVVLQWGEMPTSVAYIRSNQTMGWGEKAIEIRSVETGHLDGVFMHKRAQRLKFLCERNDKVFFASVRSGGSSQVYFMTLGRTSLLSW
Serine/threonine-protein kinase ICK (Homo sapiens), sequence (Q9UPZ9 whole entry): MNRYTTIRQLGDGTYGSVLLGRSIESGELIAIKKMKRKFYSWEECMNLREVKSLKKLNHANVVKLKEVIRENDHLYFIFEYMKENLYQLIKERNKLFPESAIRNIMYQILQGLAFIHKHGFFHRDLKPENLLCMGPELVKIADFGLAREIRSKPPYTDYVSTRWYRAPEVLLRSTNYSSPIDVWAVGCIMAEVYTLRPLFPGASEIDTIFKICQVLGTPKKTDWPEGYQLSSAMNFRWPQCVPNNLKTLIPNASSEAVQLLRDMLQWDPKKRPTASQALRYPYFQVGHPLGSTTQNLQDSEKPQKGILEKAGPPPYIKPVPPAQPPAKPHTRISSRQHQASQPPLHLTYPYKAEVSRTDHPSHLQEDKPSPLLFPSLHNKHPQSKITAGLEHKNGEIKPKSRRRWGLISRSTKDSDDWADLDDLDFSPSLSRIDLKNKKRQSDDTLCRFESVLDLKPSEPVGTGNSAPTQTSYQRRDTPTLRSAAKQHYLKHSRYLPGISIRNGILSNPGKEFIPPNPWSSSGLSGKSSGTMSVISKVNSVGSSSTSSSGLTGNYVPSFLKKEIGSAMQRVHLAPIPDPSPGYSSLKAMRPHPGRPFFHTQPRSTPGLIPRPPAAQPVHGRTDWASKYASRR
Serine/threonine-protein kinase Sgk3 (Homo sapiens), sequence (Q96BR1 whole entry): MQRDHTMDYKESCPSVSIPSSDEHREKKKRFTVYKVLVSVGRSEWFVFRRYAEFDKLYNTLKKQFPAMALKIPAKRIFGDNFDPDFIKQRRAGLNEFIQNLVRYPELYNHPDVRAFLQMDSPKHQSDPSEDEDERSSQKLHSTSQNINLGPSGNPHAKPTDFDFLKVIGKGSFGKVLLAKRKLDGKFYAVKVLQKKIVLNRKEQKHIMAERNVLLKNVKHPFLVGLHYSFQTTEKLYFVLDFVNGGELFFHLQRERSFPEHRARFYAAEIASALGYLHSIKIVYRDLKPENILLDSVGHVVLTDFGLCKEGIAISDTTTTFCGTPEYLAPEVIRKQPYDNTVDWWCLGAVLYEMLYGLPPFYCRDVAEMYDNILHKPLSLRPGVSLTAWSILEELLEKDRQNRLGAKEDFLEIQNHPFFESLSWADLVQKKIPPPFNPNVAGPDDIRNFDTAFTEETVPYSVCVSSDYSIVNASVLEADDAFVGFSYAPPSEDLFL

`COc1ccc2c(O[C@@H]3C[C@H]4C(=O)N[C@]5(C(=O)O)CC5/C=C\CCCCC[C@H](NC(=O)OC5CCCC5)C(=O)N4C3)cc(-c3csc(NC(=O)C(C)C)n3)nc2c1C` (stereo not given in full) [BI 1230] was tested, and the residual activity [1] was 100%, the residual activity [2] was 98% and the residual activity [3] was 75%. For the same compound, the residual activity [4] was 99%, the residual activity [5] was 68% and the residual activity [6] was 100%. For the same compound, the residual activity [7] was 71%, the residual activity [8] was 74% and the residual activity [9] was 85%. For the same compound, the residual activity [10] was 98%, the residual activity [11] was 70% and the residual activity [12] was 100%. It also gave a residual activity [13] of 94%, a residual activity [14] of 79% and a residual activity [15] of 100%. For the same compound, the residual activity [16] was 65%, the residual activity [17] was 99% and the residual activity [18] was 100%. It also gave a residual activity [19] of 77%, a residual activity [20] of 83% and a residual activity [21] of 100%. The residual activity [22] was 88%, the residual activity [23] was 91% and the residual activity [24] was 83%. For the same compound, the residual activity [25] was 97%, the residual activity [26] was 68% and the residual activity [27] was 78%. The residual activity [28] was 100%, the residual activity [29] was 87% and the residual activity [30] was 100%. For the same compound, the residual activity [31] was 100%, the residual activity [32] was 96% and the residual activity [33] was 81%. For the same compound, the residual activity [34] was 100%, the residual activity [35] was 100% and the IC50 (NS3 protease) was 0.0067 µM (active). The residual activity [36] was 77%, the residual activity [37] was 100% and the residual activity [38] was 91%. The residual activity [39] was 100%, the residual activity [40] was 97% and the residual activity [41] was 100%. The residual activity [42] was 68%, the residual activity [43] was 89% and the residual activity [44] was 100%.
`O=C(N[C@H]1CCCCC/C=C\C2C[C@@]2(C(=O)O)NC(=O)[C@@H]2C[C@@H](Oc3ccncc3)CN2C1=O)OC1CCCC1` (stereo not given in full) [BI 1675] gave a residual activity [1] of 100%, a residual activity [2] of 100% and a residual activity [3] of 100%. It also gave a residual activity [4] of 100%, a residual activity [5] of 85% and a residual activity [6] of 88%. It also gave a residual activity [7] of 100%, a residual activity [8] of 91% and a residual activity [9] of 80%. The residual activity [10] was 100%, the residual activity [11] was 98% and the residual activity [12] was 100%. It also gave a residual activity [13] of 69%, a residual activity [14] of 100% and a residual activity [15] of 100%. The residual activity [16] was 100%, the residual activity [17] was 99% and the residual activity [18] was 100%. The residual activity [19] was 71%, the residual activity [20] was 100% and the residual activity [21] was 69%. The residual activity [22] was 93%, the residual activity [23] was 100% and the residual activity [24] was 78%. For the same compound, the residual activity [25] was 96%, the residual activity [26] was 100% and the residual activity [27] was 89%. The residual activity [28] was 93%, the residual activity [29] was 100% and the residual activity [30] was 96%. It also gave a residual activity [31] of 100%, a residual activity [32] of 100% and a residual activity [33] of 86%. The residual activity [34] was 96%, the residual activity [35] was 100% and the IC50 (NS3 protease) was 4.87 µM (not active). For the same compound, the residual activity [36] was 90%, the residual activity [37] was 81% and the residual activity [38] was 89%. For the same compound, the residual activity [39] was 79%, the residual activity [40] was 89% and the residual activity [41] was 100%. It also gave a residual activity [42] of 80%, a residual activity [43] of 100% and a residual activity [44] of 92%.
